From patent US20260232767A1, “INTERLEUKIN-23 RECEPTOR ANTAGONIST PEPTIDES FOR USE IN THE TREATMENT OF PSORIASIS” (Janssen Pharmaceutica NV, priority 2023, published 2026)

System: subjects with moderate-to-severe plaque psoriasis
Assay: IGA score, Example 1
Type: in vivo, human
Protocol: The Investigator's Global Assessment (IGA) documents the investigator's assessment of the participant's psoriasis at a given time point. Overall lesions are graded for induration, erythema, and scaling. The participant's psoriasis is assessed as cleared (0), minimal (1), mild (2), moderate (3), or severe (4).
This was a randomized, double-blind, placebo-controlled, dose-ranging, parallel group, multicenter, interventional study in subjects with moderate-to-severe plaque psoriasis. A target of 240 subjects were enrolled in this study with 40 subjects planned per intervention group.
Clinician-reported outcomes including Psoriasis Area and Severity Index (PASI), Body Surface Area (BSA), Investigator's Global Assessment (IGA), Nail Psoriasis Area and Severity Index (NAPSI), Fingernail Physician's Global Assessment (f-PGA), Static Physician's Global Assessment of Genitalia (s-PGA-G), Physician's Global Assessment of Hands and/or Feet (hf-PGA), and Scalp Specific Investigator Global Assessment (ss-IGA) were obtained at Week 0, 8, and 16. PASI and IGA were also obtained at Weeks 1, 2, 4, and 12, and at Week 20, four weeks after the administration of the tablets has stopped.

[1] = 100 mg BID, Week 16, trough plasma conc Q2 to <Q3
[2] = 100 mg BID, Week 16, trough plasma conc ≥Q3
[3] = 100 mg QD, Week 16, peak plasma conc. <Q1, N=2
[4] = 100 mg QD, Week 16, peak plasma conc. Q1 to <Q2, N=2
[5] = 100 mg QD, Week 16, peak plasma conc. Q2 to <Q3, N=2
[6] = 100 mg QD, Week 16, peak plasma conc. ≥Q3, N=2
[7] = 100 mg QD, Week 16, trough plasma conc <Q1
[8] = 100 mg QD, Week 16, trough plasma conc Q1 to <Q2
[9] = 100 mg QD, Week 16, trough plasma conc Q2 to <Q3
[10] = 100 mg QD, Week 16, trough plasma conc ≥Q3
[11] = Combined doses, Week 16, peak plasma conc. <Q1, N=10
[12] = Combined doses, Week 16, peak plasma conc. Q1 to <Q2, N=11
[13] = Combined doses, Week 16, peak plasma conc. Q2 to <Q3, N=10
[14] = Combined doses, Week 16, peak plasma conc. ≥Q3, N=11
[15] = Combined doses, Week 16, trough plasma conc <Q1
[16] = Combined doses, Week 16, trough plasma conc Q1 to <Q2
[17] = Combined doses, Week 16, trough plasma conc Q2 to <Q3
[18] = Combined doses, Week 16, trough plasma conc ≥Q3
[19] = Week 16, 25 mg BID, intermediate plasma concentration quartile <Q1, N=1
[20] = Week 16, 25 mg BID, intermediate plasma concentration quartile Q1 to <Q2, N=1
[21] = Week 16, 25 mg BID, intermediate plasma concentration quartile Q2 to <Q3, N=1
[22] = Week 16, 25 mg BID, intermediate plasma concentration quartile ≥Q3, N=1
[23] = Week 16, 25 mg QD, intermediate plasma concentration quartile Q1 to <Q2, N=1
[24] = Week 16, 25 mg QD, intermediate plasma concentration quartile Q2 to <Q3, N=1
[25] = Week 16, 25 mg QD, intermediate plasma concentration quartile ≥Q3, N=1
[26] = Week 16, 50 mg QD, intermediate plasma concentration quartile <Q1, N=1
[27] = Week 16, 50 mg QD, intermediate plasma concentration quartile Q1 to <Q2, N=1
[28] = Week 16, 50 mg QD, intermediate plasma concentration quartile Q2 to <Q3, N=1
[29] = Week 16, 50 mg QD, intermediate plasma concentration quartile ≥Q3, N=2
[30] = Week 16, 100 mg BID, intermediate plasma concentration quartile <Q1, N=1
[31] = Week 16, 100 mg BID, intermediate plasma concentration quartile Q1 to <Q2, N=1
[32] = Week 16, 100 mg BID, intermediate plasma concentration quartile Q2 to <Q3, N=1
[33] = Week 16, 100 mg BID, intermediate plasma concentration quartile ≥Q3, N=2
[34] = Week 16, 100 mg QD, intermediate plasma concentration quartile <Q1, N=1
[35] = Week 16, 100 mg QD, intermediate plasma concentration quartile Q1 to <Q2, N=1
[36] = Week 16, 100 mg QD, intermediate plasma concentration quartile Q2 to <Q3, N=1
[37] = Week 16, 100 mg QD, intermediate plasma concentration quartile ≥Q3, N=1
[38] = Week 16, Combined regimens, intermediate plasma concentration quartile <Q1, N=5
[39] = Week 16, Combined regimens, intermediate plasma concentration quartile Q1 to <Q2, N=5
[40] = Week 16, Combined regimens, intermediate plasma concentration quartile Q2 to <Q3, N=5
[41] = Week 16, Combined regimens, intermediate plasma concentration quartile ≥Q3, N=6

SMILES: CC(=O)NCCCC[C@@H]1NC(=O)[C@H](Cc2c[nH]c3c(C)cccc23)NC(=O)[C@H]([C@@H](C)O)NC(=O)[C@H](CC(N)=O)NC(=O)[C@@H](NC(C)=O)C(C)(C)SSC(C)(C)[C@@H](C(=O)N[C@@H](Cc2ccc(OCCN)cc2)C(=O)N[C@@H](Cc2ccc3ccccc3c2)C(=O)NC2(C(=O)N[C@@H](CCC(=O)O)C(=O)N[C@@H](CC(N)=O)C(=O)N[C@@H](Cc3cccnc3)C(=O)N(C)CC(N)=O)CCOCC2)NC1=O [IL-23 receptor antagonist peptide, Ac-[Pen]*-N-T-[W(7-Me)]-[Lys(Ac)]-[Pen]*-Phe[4-(2-aminoethoxy)]-[2-Nal]-[THP]-E-N-[3-Pal]-Sarc-NH2 (*[Pen]-[Pen]* formdisulfidebond)]
- IGA Score = 0 or 1, subjects (100 mg BID, Week 16, trough plasma conc Q1 to <Q2): 4 (80.0%)
- IGA Score = 0, subjects [1]: 2 (40.0%)
- IGA Score = 0 or 1, subjects [1]: 3 (60.0%)
- IGA Score = 0, subjects [2]: 3 (60.0%)
- IGA Score = 0 or 1, subjects [2]: 4 (80.0%)
- IGA 0 or 1 treatment difference vs placebo (100 mg QD, Week 16): 51.2% (34.0%,
- IGA 0 treatment difference vs placebo (100 mg QD, Week 16): 27.9% (14.6%,
- Subjects achieving IGA Score = 0 (100 mg QD, Week 16): 12 (27.9%)
- Subjects achieving IGA Score = 0 or 1 (100 mg QD, Week 16): 27 (62.8%)
- IGA score 0, % (100 mg QD, Week 16, N=43): 27.9%
- IGA score 0/1, % (100 mg QD, Week 16, N=43): 62.8%
- IGA Score = 0, % subjects [3]: (50.0%)
- IGA Score = 0, n subjects [3]: 1
- IGA Score = 0 or 1, % subjects [3]: (50.0%)
- IGA Score = 0 or 1, n subjects [3]: 1
- IGA Score = 0, % subjects [4]: (50.0%)
- IGA Score = 0, n subjects [4]: 1
- IGA Score = 0 or 1, % subjects [4]: (100.0%)
- IGA Score = 0 or 1, n subjects [4]: 2
- IGA Score = 0, % subjects [5]: (50.0%)
- IGA Score = 0, n subjects [5]: 1
- IGA Score = 0 or 1, % subjects [5]: (50.0%)
- IGA Score = 0 or 1, n subjects [5]: 1
- IGA Score = 0, n subjects [6]: 0
- IGA Score = 0 or 1, % subjects [6]: (50.0%)
- IGA Score = 0 or 1, n subjects [6]: 1
- IGA Score = 0, subjects [7]: 3 (60.0%)
- IGA Score = 0 or 1, subjects [7]: 3 (60.0%)
- IGA Score = 0, subjects [8]: 0
- IGA Score = 0 or 1, subjects [8]: 3 (60.0%)
- IGA Score = 0, subjects [9]: 1 (20.0%)
- IGA Score = 0 or 1, subjects [9]: 3 (60.0%)
- IGA Score = 0, subjects [10]: 1 (20.0%)
- IGA Score = 0 or 1, subjects [10]: 3 (60.0%)
- IGA Score = 0, % subjects [11]: (10.0%)
- IGA Score = 0, n subjects [11]: 1
- IGA Score = 0 or 1, % subjects [11]: (30.0%)
- IGA Score = 0 or 1, n subjects [11]: 3
- IGA Score = 0, % subjects [12]: (36.4%)
- IGA Score = 0, n subjects [12]: 4
- IGA Score = 0 or 1, % subjects [12]: (72.7%)
- IGA Score = 0 or 1, n subjects [12]: 8
- IGA Score = 0, % subjects [13]: (30.0%)
- IGA Score = 0, n subjects [13]: 3
- IGA Score = 0 or 1, % subjects [13]: (80.0%)
- IGA Score = 0 or 1, n subjects [13]: 8
- IGA Score = 0, % subjects [14]: (45.5%)
- IGA Score = 0, n subjects [14]: 5
- IGA Score = 0 or 1, % subjects [14]: (63.6%)
- IGA Score = 0 or 1, n subjects [14]: 7
- IGA Score = 0, subjects [15]: 10 (38.5%)
- IGA Score = 0 or 1, subjects [15]: 14 (53.8%)
- IGA Score = 0, subjects [16]: 5 (19.2%)
- IGA Score = 0 or 1, subjects [16]: 12 (46.2%)
- IGA Score = 0, subjects [17]: 5 (19.2%)
- IGA Score = 0 or 1, subjects [17]: 15 (57.7%)
- IGA Score = 0, subjects [18]: 10 (37.0%)
- IGA Score = 0 or 1, subjects [18]: 21 (77.8%)
- IGA Score = 0, subjects n (%) [19]: 0
- IGA Score = 0 or 1, subjects n (%) [19]: 0
- IGA Score = 0, subjects n (%) [20]: 0
- IGA Score = 0 or 1, subjects n (%) [20]: 1 (100.0%)
- IGA Score = 0, subjects n (%) [21]: 0
- IGA Score = 0 or 1, subjects n (%) [21]: 0
- IGA Score = 0, subjects n (%) [22]: 0
- IGA Score = 0 or 1, subjects n (%) [22]: 1 (100.0%)
- IGA Score = 0, subjects n (%) [23]: 0
- IGA Score = 0 or 1, subjects n (%) [23]: 0
- IGA Score = 0, subjects n (%) [24]: 1 (100.0%)
- IGA Score = 0 or 1, subjects n (%) [24]: 1 (100.0%)
- IGA Score = 0, subjects n (%) [25]: 0
- IGA Score = 0 or 1, subjects n (%) [25]: 0
- IGA Score = 0, subjects n (%) [26]: 0
- IGA Score = 0 or 1, subjects n (%) [26]: 0
- IGA Score = 0, subjects n (%) [27]: 1 (100.0%)
- IGA Score = 0 or 1, subjects n (%) [27]: 1 (100.0%)
- IGA Score = 0, subjects n (%) [28]: 1 (100.0%)
- IGA Score = 0 or 1, subjects n (%) [28]: 1 (100.0%)
- IGA Score = 0, subjects n (%) [29]: 0
- IGA Score = 0 or 1, subjects n (%) [29]: 1 (50.0%)
- IGA Score = 0, subjects n (%) [30]: 1 (100.0%)
- IGA Score = 0 or 1, subjects n (%) [30]: 1 (100.0%)
- IGA Score = 0, subjects n (%) [31]: 1 (100.0%)
- IGA Score = 0 or 1, subjects n (%) [31]: 1 (100.0%)
- IGA Score = 0, subjects n (%) [32]: 0
- IGA Score = 0 or 1, subjects n (%) [32]: 0
- IGA Score = 0, subjects n (%) [33]: 2 (100.0%)
- IGA Score = 0 or 1, subjects n (%) [33]: 2 (100.0%)
- IGA Score = 0, subjects n (%) [34]: 1 (100.0%)
- IGA Score = 0 or 1, subjects n (%) [34]: 1 (100.0%)
- IGA Score = 0, subjects n (%) [35]: 1 (100.0%)
- IGA Score = 0 or 1, subjects n (%) [35]: 1 (100.0%)
- IGA Score = 0, subjects n (%) [36]: 0
- IGA Score = 0 or 1, subjects n (%) [36]: 1 (100.0%)
- IGA Score = 0, subjects n (%) [37]: 0
- IGA Score = 0 or 1, subjects n (%) [37]: 1 (100.0%)
- IGA Score = 0, subjects n (%) [38]: 3 (60.0%)
- IGA Score = 0 or 1, subjects n (%) [38]: 3 (60.0%)
- IGA Score = 0, subjects n (%) [39]: 2 (40.0%)
- IGA Score = 0 or 1, subjects n (%) [39]: 3 (60.0%)
- IGA Score = 0, subjects n (%) [40]: 1 (20.0%)
- IGA Score = 0 or 1, subjects n (%) [40]: 3 (60.0%)
- IGA Score = 0, subjects n (%) [41]: 3 (50.0%)
- IGA Score = 0 or 1, subjects n (%) [41]: 5 (83.3%)
